Laboratory results reported in PMC12175177 (Frontiers in Pharmacology, 2025).
Read-outs that look alike come from different tables or passages of the source.

What was measured:
Type in all cases: cell-based
[1] = tested on: SARS-CoV-2 Delta variant (SEQ203); conditions: for % inhibition Vero E6 Delta MOI 0.0001: 1x
SARS-CoV-2 A2.5 variant [2] = assay: microbe, parasite or virus in culture
SARS-CoV-2 Delta variant [3] = tested on: SARS-CoV-2 Delta variant
SARS-CoV-2 Delta variant [4] = tested on: SARS-CoV-2 Delta variant; remark: listed apart in the source
SARS-CoV-2 A2.5 variant [5] = tested on: SARS-CoV-2 A2.5 variant
[6] = tested on: SARS-CoV-2 A2.5 variant (M2169)
[7] = Severe acute respiratory syndrome coronavirus 2, Vero C1008, 72 h, read-out: IC50%
[8] = Severe acute respiratory syndrome coronavirus 2, Vero C1008, 72 h, read-out: IC50% in µg/mL
[9] = Severe acute respiratory syndrome coronavirus 2, Vero C1008, read-out: IC50 (Figure 4 curve)
[10] = Severe acute respiratory syndrome coronavirus 2, Vero C1008, read-out: IC90%
[11] = Severe acute respiratory syndrome coronavirus 2, Vero C1008, read-out: IC90% in µg/mL

COc1cc(NC(C)CCCN)c2ncccc2c1 (centres unmarked) [Primaquine Phosphate (PQ), Primaquine Phosphate]
% inhibition Vero E6 Delta MOI 0.0001 ([1]; at MNCC, […], 48 h): 2%
% inhibition Vero E6 Delta MOI 0.01 ([1]; at MNCC, […], 48 h, mean 2x): 18%
IC50 (SARS-CoV-2 A2.5 variant [2]; [7]): 15.3 µM
IC50 (SARS-CoV-2 A2.5 variant [2]; [8]): 5 µg/mL
IC50 (SARS-CoV-2 A2.5 variant [2]; [9]): 19.3 µM
IC90 (SARS-CoV-2 A2.5 variant [2]; [10]): 138 µM
IC90 (SARS-CoV-2 A2.5 variant [2]; [11]): 35.7 µg/mL
antiviral effect, treatment 1 hour post-infection, Delta (SARS-CoV-2 Delta variant [3]): dose-dependent antiviral effect
effect on viral replication, treatment 1 hour pre-infection, Delta (SARS-CoV-2 Delta variant [3]): did not influence the viral replication
effect on viral load, time of addition, Delta (SARS-CoV-2 Delta variant [4]): substantially lower viral load
period of most of the inhibitory effect, Delta (SARS-CoV-2 Delta variant [4]): ≤ 5 h
effect on viral load, time of addition, A2.5 (SARS-CoV-2 A2.5 variant [5]): substantially lower viral load
period of most of the inhibitory effect, A2.5 (SARS-CoV-2 A2.5 variant [5]): ≤ 3 h
% inhibition Calu-3 A2.5 MOI 0.01 ([6]; at MNCC, […], 48 h, mean 2x): 10%

CCN(CC)CCCC(C)Nc1ccnc2cc(Cl)ccc12 (centres unmarked) [Chloroquine diphosphate (CQ), Chloroquine diphosphate]
antiviral inhibition at MOI = 0.00001 [1]: ≥ 20%
less potent against the Delta compared to the A2.5 variant [1]: 20%
% inhibition Vero E6 Delta MOI 0.0001 ([1]; at MNCC, […], 48 h): 44%
IC50 (SARS-CoV-2 A2.5 variant [2]; [7]): 6.3 µM
IC50 (SARS-CoV-2 A2.5 variant [2]; [8]): 2 µg/mL
IC50 (SARS-CoV-2 A2.5 variant [2]; [9]): 6.27 µM
IC90 (SARS-CoV-2 A2.5 variant [2]; [10]): 56.7 µM
IC90 (SARS-CoV-2 A2.5 variant [2]; [11]): 18.1 µg/mL
antiviral effect, treatment 1 hour post-infection, Delta (SARS-CoV-2 Delta variant [3]): dose-dependent antiviral effect
effect on viral replication, treatment 1 hour pre-infection, Delta (SARS-CoV-2 Delta variant [3]): did not influence the viral replication
period of most of the inhibitory effect, Delta (SARS-CoV-2 Delta variant [4]): during the adsorption phase
less susceptible to CQ than to PQ, Delta (SARS-CoV-2 Delta variant [4]; Vero-E6, same time interval): 2–4 orders of magnitude
period of most of the inhibitory effect, A2.5 (SARS-CoV-2 A2.5 variant [5]): during the adsorption phase
less susceptible to CQ than to PQ, A2.5 (SARS-CoV-2 A2.5 variant [5]; Vero-E6, same time interval): 2–4 orders of magnitude
inhibition of A.2.5 infection in Calu-3 compared to camostat (CAM) ([6]; Calu-3): two-fold less
